Usually melting point stands for the temperature of the solid-liquid transition. `CC(=O)OCC1(C)SC2C(NC(=O)Cc3ccccc3)C(=O)N2C1C(=O)OCC(Cl)(Cl)Cl` (centres undefined): the melting point lay within 116 to 118 °C.

Turning to `O=C(O)CCCOc1ccc([N+](=O)[O-])cc1`, the melting point was in the range of 116 to 118 °C.

Consider `COc1cc2c(cc1-c1cccnc1)-c1c(C3NCCO3)c3c(n1CC2)C(=O)N(C(C)(C)C)CCC3` (centres undefined), for which the melting point lay in the range of 218 to 220 °C.

As for `N#Cc1c(N)n[nH]c1N1CCN(Cc2ccccc2)CC1`, the melting point was 157 to 158 °C.

In turn, `O=C(C(=O)c1cccc(OCc2ccccc2)c1)c1cc[nH]c1` yielded a melting point of 124 to 125 °C.

`COC(=O)Cc1cc2c(s1)NC(=S)C(C)N=C2c1ccccc1Cl` (centres undefined) showed a melting point of 196 to 197 °C.

`O=C(Nc1cccc(S(=O)(=O)C(F)(F)F)c1)c1cnn2c(C(F)F)cc(-c3ccc(C(F)(F)F)cc3)nc12` showed a melting point of 207 °C.

As to `O=C(OCc1ccccc1)c1cc(Cl)c(Cl)c(Cl)n1`, the melting point was 125 to 126 °C.

`CCOC(=O)c1cn(NC)c2c(F)c(F)c(F)cc2c1=O` displayed a melting point of 189 °C.

Take `COc1cc(N)c(Cl)cc1C(=O)NN1CCN(C)CC1`: the melting point was 220 °C.

For `C=CCNC(=NCCSCc1[nH]cnc1C)NC#N`, the melting point lay within 113 to 114 °C.

`O=C(N[C@H](Cc1ccc(C(F)(F)F)cc1)[C@@H](O)c1cccc(F)c1)c1cccc2c1C=CCCC2` (racemic) registered a melting point of 151 to 152 °C.

Turning to `CC(=O)NNc1ccnc2c(NC(=O)c3c(Cl)cccc3Cl)ccc(Cl)c12`, the melting point was in the range of 158 to 161 °C.

On to `Clc1ccc(CC2(n3cncn3)CC2)cc1`, for which the melting point is 67 to 68 °C.

Take `CC(C)(COc1ccccc1)C(=O)c1ccc(Br)cc1`: the melting point is 73 to 74 °C.

In the case of `CC(C)(C)OC(=O)NCc1ccc(-n2c(-c3cccnc3N)nc3ccc(-c4cn[nH]c4)nc32)cc1`, the melting point was in the range of 243 to 244 °C.

In turn, `CCN1CCN(CCCOc2cc3ncc(C#N)c(Nc4ccc(Sc5nc(C)c(C)n5CC)c(Cl)c4)c3cc2OC)CC1` gave a melting point of 229 to 230 °C.

For `CC(C)(C)OC(=O)N1CCC(C(=O)Nc2ccccc2Oc2ccc(OC(F)(F)F)cc2)CC1`, the melting point lay within 45 to 48 °C.

`COc1cc(C(=O)c2ccc(C(F)(F)F)cc2)cc([N+](=O)[O-])c1O`: the melting point was determined as 172 °C.

Compound `CS(=O)(=O)Oc1cc([N+](=O)[O-])c(F)cc1Cl` had a melting point of 64 to 65.5 °C.

For `CCCCCCCCCCC[C@@H]1CC(O)=CC(=O)O1`, the melting point lay within 86 to 87 °C.

In the case of `C=S1C(=NC(F)(F)F)C(=NC(F)(F)F)N(c2ccccc2)C1C(C)=O` (centres undefined), the melting point lay within 189 to 191 °C.

Regarding `COc1ccc(C(=O)C(=O)c2ccc(OC(F)F)cc2)cc1C#N`, the melting point fell in the range of 150 to 155 °C.

`CC(=O)C1=Cc2cc(Br)ccc2OC1` had a melting point of 70 °C.

On to `COC12CC(C)(c3nnc(-c4cncc(Br)c4)[nH]3)CN(C)C1Cc1c[nH]c3cccc2c13` (centres undefined), for which the melting point lay in the range of 163 to 168 °C.

In the case of `CCCCc1ccc(C#CC(C)N(O)C(N)=O)s1` (centres undefined), the melting point was in the range of 104 to 106 °C.

The compound `COc1cc2c(c3c1OC(C)(C)C3)C(c1cccc(C(=O)Nc3c(Cl)cncc3Cl)c1)=NC(C)(C)C2` gave a melting point of 227 to 228 °C.

Take `O=c1ccn(-c2cccc(C(F)(F)F)c2)nc1-c1c[nH]nc1-c1ccccc1`: the melting point was in the range of 206 to 208 °C.

On to `NNc1cc2c(nn1)CCN(C(=O)c1ccc(Br)cc1)C2`, for which the melting point was in the range of 192 to 195 °C.

Take `Cc1c(CBr)cccc1C(F)(F)C(F)(F)c1ccccc1`: the melting point lay in the range of 67 to 71 °C.

Regarding `NC(=O)c1coc2c1C(=O)CC(c1ccccc1)C2` (centres undefined), the melting point was in the range of 252 to 253 °C.

The compound `OCC1CCCc2scnc21` (centres undefined) had a melting point of 74 to 75 °C.

On to `O=C1c2ccccc2CN1[C@@H]1c2cc([N+](=O)[O-])ccc2OC(CF)(CF)[C@H]1O` (relative stereo), for which the melting point lay in the range of 285 to 288 °C.

With `CCCOc1ccc(-c2ccc3c(c2)C=C(C(=O)O)CCN3C=O)cc1`, the melting point lay within 215 to 217 °C.

The values above are taken from a melting point compilation (Tetko et al.; mined from patent text by program, amines drawn as free bases though some values may be those of a salt).
